Laboratory results published in paper PMC6025150, “Synthesis, enzyme inhibitory kinetics mechanism and computational study of N-(4-methoxyphenethyl)-N-(substituted)-4-methylbenzenesulfonamides as novel therapeutic agents for Alzheimer’s disease” (PeerJ, 2018).
Values after ≈ are worked out from the molar mass of the structure shown. Values joined by “and” are separate entries in the source; they are usually repeats but may differ in a detail not shown here. Identical values can stand only once.

biological target: T1, acetylcholinesterase (from human erythrocytes) (Homo sapiens, UniProt P22303); test: biochemical; set-up: LogIC50 (best-fit value): unit not given here; details: Conc: 0.0306373 (unit not given); Raw Data of IC50 sheet
T1 construct: acetylcholinesterase (from human erythrocytes, purchased from Sigma-Aldrich, Seoul, Korea); purchased Sigma-Aldrich, Seoul, Korea; host or cells: human erythrocytes (natural source)
Method: The inhibitory activities of synthesized compounds were determined spectrophotometrically using acetylthiocholine iodide as substrate by following the method of ([Ellman et al., 1961]). Briefly, The assay solution consisted of 180 µL of 50 mM Tris-HCl buffer, pH 7.7, containing (0.1 M sodium chloride and 0.02 M magnesium chloride) and 20 µL of enzyme (AChE, EC 3.1.1.7), acetylcholinesterase (from human erythrocytes, purchased from Sigma-Aldrich, Seoul, Korea) solution (50 U per well); increasing concentrations of test compounds (10 µL) were added to the assay solution and pre incubated for 30 min at 4 °C. After that 5,5′ Dithiobis (2 nitrobenzoic acid) (0.3 mM, 20 µL) and acetylthiocholine iodide (1.8 mM, 20 µL) were added to the reaction mixture and incubated at 37 °C for 10 min, followed by the measurement of absorbance at 412 nm. For non-enzymatic reaction, the assays were carried out with a blank containing all components except acetylcholinesterase. The assay measurements were measured at 412 nm using a micro plate reader (OPTI Max Tunable; Molecular Devices, Sunnyvale, CA, USA) having a wave-length range from 340–850 nm; for 96 well plates. The reaction rates were compared and percent inhibition was calculated due to the presence of tested inhibitors. […] Each concentration was analyzed in three independent experiments run in triplicate. The IC50 values were calculated by nonlinear regression using GraphPad Prism 5.0.
The % of Inhibition of Acetylcholinesterase was calculated as following: Inhibition%=B−S∕B×100. Here, the B and S are the absorbance’s for the blank and samples.

T1 sequence (P22303 32-617 isoform P22303-2 limits assumed): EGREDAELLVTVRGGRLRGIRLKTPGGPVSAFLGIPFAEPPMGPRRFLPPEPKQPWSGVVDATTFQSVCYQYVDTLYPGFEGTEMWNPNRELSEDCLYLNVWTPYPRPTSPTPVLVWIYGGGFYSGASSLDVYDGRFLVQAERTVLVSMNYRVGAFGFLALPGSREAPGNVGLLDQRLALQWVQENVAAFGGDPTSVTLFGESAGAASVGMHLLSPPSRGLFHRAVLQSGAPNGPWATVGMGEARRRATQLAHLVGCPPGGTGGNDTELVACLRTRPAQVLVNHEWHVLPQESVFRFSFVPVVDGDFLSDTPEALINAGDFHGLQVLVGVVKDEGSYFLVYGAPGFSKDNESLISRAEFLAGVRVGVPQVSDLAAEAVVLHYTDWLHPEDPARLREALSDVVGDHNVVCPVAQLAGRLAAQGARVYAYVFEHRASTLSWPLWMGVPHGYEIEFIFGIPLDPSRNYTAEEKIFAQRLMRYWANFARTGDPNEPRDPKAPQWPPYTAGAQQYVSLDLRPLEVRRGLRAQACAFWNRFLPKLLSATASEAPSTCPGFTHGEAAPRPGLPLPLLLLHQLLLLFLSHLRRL

Compound	inhibition, single experiment
COc1ccc(CCN(Cc2ccccc2C)S(=O)(=O)c2ccc(C)cc2)cc1 [Compound 5h, N-(4-Methoxyphenethyl)-4-methyl-N-(2-methylbenzyl) benzensulfonamide]	41.4444 and 41.0099

same assay, conditions: Conc: 0.0306373 (unit not given); mean of three; Raw Data of IC50 sheet

Compound	inhibition (Mean)
COc1ccc(CCN(Cc2ccccc2C)S(=O)(=O)c2ccc(C)cc2)cc1 [Compound 5h, N-(4-Methoxyphenethyl)-4-methyl-N-(2-methylbenzyl) benzensulfonamide]	40.984

same assay, conditions: Conc: 0.0612745 (unit not given); Raw Data of IC50 sheet

Compound	inhibition, single experiment
COc1ccc(CCN(Cc2ccccc2C)S(=O)(=O)c2ccc(C)cc2)cc1 [Compound 5h, N-(4-Methoxyphenethyl)-4-methyl-N-(2-methylbenzyl) benzensulfonamide]	45.3557 and 45.1011

same assay, conditions: Conc: 0.0612745 (unit not given); mean of three; Raw Data of IC50 sheet

Compound	inhibition (Mean)
COc1ccc(CCN(Cc2ccccc2C)S(=O)(=O)c2ccc(C)cc2)cc1 [Compound 5h, N-(4-Methoxyphenethyl)-4-methyl-N-(2-methylbenzyl) benzensulfonamide]	44.9216

same assay, conditions: Conc: 0.122549 (unit not given); Raw Data of IC50 sheet

Compound	inhibition, single experiment
COc1ccc(CCN(Cc2ccccc2C)S(=O)(=O)c2ccc(C)cc2)cc1 [Compound 5h, N-(4-Methoxyphenethyl)-4-methyl-N-(2-methylbenzyl) benzensulfonamide]	50.9025 and 51.1299

same assay, conditions: Conc: 0.122549 (unit not given); mean of three; Raw Data of IC50 sheet

Compound	inhibition (Mean)
COc1ccc(CCN(Cc2ccccc2C)S(=O)(=O)c2ccc(C)cc2)cc1 [Compound 5h, N-(4-Methoxyphenethyl)-4-methyl-N-(2-methylbenzyl) benzensulfonamide]	51.0341

same assay, conditions: Conc: 0.245098 (unit not given); Raw Data of IC50 sheet

Compound	inhibition, single experiment
COc1ccc(CCN(Cc2ccccc2C)S(=O)(=O)c2ccc(C)cc2)cc1 [Compound 5h, N-(4-Methoxyphenethyl)-4-methyl-N-(2-methylbenzyl) benzensulfonamide]	63.8777 and 63.001

same assay, conditions: Conc: 0.245098 (unit not given); mean of three; Raw Data of IC50 sheet

Compound	inhibition (Mean)
COc1ccc(CCN(Cc2ccccc2C)S(=O)(=O)c2ccc(C)cc2)cc1 [Compound 5h, N-(4-Methoxyphenethyl)-4-methyl-N-(2-methylbenzyl) benzensulfonamide]	63.2456

same assay, conditions: Conc: 0.490196 (unit not given); Raw Data of IC50 sheet

Compound	inhibition, single experiment
COc1ccc(CCN(Cc2ccccc2C)S(=O)(=O)c2ccc(C)cc2)cc1 [Compound 5h, N-(4-Methoxyphenethyl)-4-methyl-N-(2-methylbenzyl) benzensulfonamide]	71.1111 and 70.9965

same assay, conditions: Conc: 0.490196 (unit not given); mean of three; Raw Data of IC50 sheet

Compound	inhibition (Mean)
COc1ccc(CCN(Cc2ccccc2C)S(=O)(=O)c2ccc(C)cc2)cc1 [Compound 5h, N-(4-Methoxyphenethyl)-4-methyl-N-(2-methylbenzyl) benzensulfonamide]	70.8325

same assay, conditions: Conc: 0.980392 (unit not given); Raw Data of IC50 sheet

Compound	inhibition, single experiment
COc1ccc(CCN(Cc2ccccc2C)S(=O)(=O)c2ccc(C)cc2)cc1 [Compound 5h, N-(4-Methoxyphenethyl)-4-methyl-N-(2-methylbenzyl) benzensulfonamide]	78.3125 and 78.8745

same assay, conditions: Conc: 0.980392 (unit not given); mean of three; Raw Data of IC50 sheet

Compound	inhibition (Mean)
COc1ccc(CCN(Cc2ccccc2C)S(=O)(=O)c2ccc(C)cc2)cc1 [Compound 5h, N-(4-Methoxyphenethyl)-4-methyl-N-(2-methylbenzyl) benzensulfonamide]	78.5659

same assay, conditions: Conc: 1.96078 (unit not given); Raw Data of IC50 sheet

Compound	inhibition, single experiment
COc1ccc(CCN(Cc2ccccc2C)S(=O)(=O)c2ccc(C)cc2)cc1 [Compound 5h, N-(4-Methoxyphenethyl)-4-methyl-N-(2-methylbenzyl) benzensulfonamide]	83.9784 and 86.5532

same assay, conditions: Conc: 1.96078 (unit not given); mean of three; Raw Data of IC50 sheet

Compound	inhibition (Mean)
COc1ccc(CCN(Cc2ccccc2C)S(=O)(=O)c2ccc(C)cc2)cc1 [Compound 5h, N-(4-Methoxyphenethyl)-4-methyl-N-(2-methylbenzyl) benzensulfonamide]	85.3051

same assay, conditions: Conc: 3.92157 (unit not given); Raw Data of IC50 sheet

Compound	inhibition, single experiment
COc1ccc(CCN(Cc2ccccc2C)S(=O)(=O)c2ccc(C)cc2)cc1 [Compound 5h, N-(4-Methoxyphenethyl)-4-methyl-N-(2-methylbenzyl) benzensulfonamide]	96.8547 and 96.1111

same assay, conditions: Conc: 3.92157 (unit not given); mean of three; Raw Data of IC50 sheet

Compound	inhibition (Mean)
COc1ccc(CCN(Cc2ccccc2C)S(=O)(=O)c2ccc(C)cc2)cc1 [Compound 5h, N-(4-Methoxyphenethyl)-4-methyl-N-(2-methylbenzyl) benzensulfonamide]	96.3251

same assay, conditions: Concentration 0.0306373 (unit not given); IC50 Raw Data sheet

Compound	% inhibition [%]
COc1ccc(CCN(Cc2ccccc2C)S(=O)(=O)c2ccc(C)cc2)cc1 [Compound 5h, N-(4-Methoxyphenethyl)-4-methyl-N-(2-methylbenzyl) benzensulfonamide]	40.4976

same assay, conditions: Concentration 0.0612745 (unit not given); IC50 Raw Data sheet

Compound	% inhibition [%]
COc1ccc(CCN(Cc2ccccc2C)S(=O)(=O)c2ccc(C)cc2)cc1 [Compound 5h, N-(4-Methoxyphenethyl)-4-methyl-N-(2-methylbenzyl) benzensulfonamide]	44.3081

same assay, conditions: Concentration 0.122549 (unit not given); IC50 Raw Data sheet

Compound	% inhibition [%]
COc1ccc(CCN(Cc2ccccc2C)S(=O)(=O)c2ccc(C)cc2)cc1 [Compound 5h, N-(4-Methoxyphenethyl)-4-methyl-N-(2-methylbenzyl) benzensulfonamide]	51.0699

same assay, conditions: Concentration 0.245098 (unit not given); IC50 Raw Data sheet

Compound	% inhibition [%]
COc1ccc(CCN(Cc2ccccc2C)S(=O)(=O)c2ccc(C)cc2)cc1 [Compound 5h, N-(4-Methoxyphenethyl)-4-methyl-N-(2-methylbenzyl) benzensulfonamide]	62.858

same assay, conditions: Concentration 0.490196 (unit not given); IC50 Raw Data sheet

Compound	% inhibition [%]
COc1ccc(CCN(Cc2ccccc2C)S(=O)(=O)c2ccc(C)cc2)cc1 [Compound 5h, N-(4-Methoxyphenethyl)-4-methyl-N-(2-methylbenzyl) benzensulfonamide]	70.3899

same assay, conditions: Concentration 0.980392 (unit not given); IC50 Raw Data sheet

Compound	% inhibition [%]
COc1ccc(CCN(Cc2ccccc2C)S(=O)(=O)c2ccc(C)cc2)cc1 [Compound 5h, N-(4-Methoxyphenethyl)-4-methyl-N-(2-methylbenzyl) benzensulfonamide]	78.5107

same assay, conditions: Concentration 1.96078 (unit not given); IC50 Raw Data sheet

Compound	% inhibition [%]
COc1ccc(CCN(Cc2ccccc2C)S(=O)(=O)c2ccc(C)cc2)cc1 [Compound 5h, N-(4-Methoxyphenethyl)-4-methyl-N-(2-methylbenzyl) benzensulfonamide]	85.3837

same assay, conditions: Concentration 3.92157 (unit not given); IC50 Raw Data sheet

Compound	% inhibition [%]
COc1ccc(CCN(Cc2ccccc2C)S(=O)(=O)c2ccc(C)cc2)cc1 [Compound 5h, N-(4-Methoxyphenethyl)-4-methyl-N-(2-methylbenzyl) benzensulfonamide]	96.0094

same assay, conditions: each of three independent experiments; Raw Data of IC50 sheet

Compound	IC50, single experiment
COc1ccc(CCN(Cc2ccccc2C)S(=O)(=O)c2ccc(C)cc2)cc1 [Compound 5h, N-(4-Methoxyphenethyl)-4-methyl-N-(2-methylbenzyl) benzensulfonamide]	0.4151 µg/mL and 0.4171 µg/mL

same assay, conditions: from human erythrocytes; mean ± SEM; read-out: Acetylcholinesterase IC50 ± SEM

Compound	IC50 [µM]
COc1ccc(CCN(Cc2ccccc2C)S(=O)(=O)c2ccc(C)cc2)cc1 [Compound 5h, N-(4-Methoxyphenethyl)-4-methyl-N-(2-methylbenzyl) benzensulfonamide]	1.011 ± 0.0053

same assay, conditions: log(inhibitor) vs. response fit, single run; IC50 Raw Data sheet

Compound	LogIC50 (best-fit value)
COc1ccc(CCN(Cc2ccccc2C)S(=O)(=O)c2ccc(C)cc2)cc1 [Compound 5h, N-(4-Methoxyphenethyl)-4-methyl-N-(2-methylbenzyl) benzensulfonamide]	-0.3874

same assay, conditions: log(inhibitor) vs. response fit, single run; unit not given; IC50 Raw Data sheet

Compound	IC50 (best-fit value)
COc1ccc(CCN(Cc2ccccc2C)S(=O)(=O)c2ccc(C)cc2)cc1 [Compound 5h, N-(4-Methoxyphenethyl)-4-methyl-N-(2-methylbenzyl) benzensulfonamide]	0.4098

same assay, conditions: mean converted to uM; Raw Data of IC50 sheet; read-out: IC50

Compound	IC50 [µM]
COc1ccc(CCN(Cc2ccccc2C)S(=O)(=O)c2ccc(C)cc2)cc1 [Compound 5h, N-(4-Methoxyphenethyl)-4-methyl-N-(2-methylbenzyl) benzensulfonamide]	1.01

same assay, conditions: mean of three experiments; Raw Data of IC50 sheet

Compound	IC50 (Mean) [µg/mL]
COc1ccc(CCN(Cc2ccccc2C)S(=O)(=O)c2ccc(C)cc2)cc1 [Compound 5h, N-(4-Methoxyphenethyl)-4-methyl-N-(2-methylbenzyl) benzensulfonamide]	0.414 (≈ 1.01 µM)
